US8257921B1, “NRIP1 regulation of apolipoprotein A1” (Schering Corporation, priority 2008, dated 2012)

Assays:
[1] = system: apoA1 mRNA; conditions: HepG2 cells; Haghpassand et al. 1995; cited from earlier work
[2] = system: apoA1 mRNA; assay: apoA1 mRNA by RT-qPCR in transfected HepG2 cells; assay type: cell-based, human; conditions: for apoA1 mRNA levels: individual NRIP1 Dicer substrate dsiRNA duplexes (FIG. 8)
From the text: Pools of siRNAs that were targeted to NRIP1 (#27) and 32 other transcription modulators were transfected into cultured HepG2 cell along with experimental controls apoA1 siRNA (siApoA1), siRNA non-targeting control (siNT) and transfection media without siRNA (HepG2). […] Each siRNA was designed and synthesized by Dharmacon to interact in a sequence specific manner with the target mRNA and suppress gene expression. For NRIP1, the following siRNA duplexes were used based on the NRIP1 sequence found under GenBank Accession no. NM_173440.
Cultured human hepatoma cell line HepG2 cells were seeded in 6-well plates at a density of 4E5 (i.e., 4×10^5) cells/well in antibiotic free 10% FBS/MEME and cultured for 16 hours. siRNA (20 μM) was prepared by diluting to 2 μM with buffer. To that, equal amounts Opti-MEM medium was added, mixed and kept at room temperature (RT) for 5 minutes. Transfection lipid was prepared using DharmaFECT 4 transfection reagent X25 times diluted with Opti-MEM medium (4 μL/100 medium), mixed and kept at RT for 5 minutes. siRNA and transfection lipid were complexed by mixing equal volumes and incubated for 20 minutes at RT. […]
Forty-eight hours post transfection, medium was removed from transfected HepG2 culture and assessed for secreted apoA1 levels using a human apoA1 sandwich ELISA (MabTech) as described by the manufacturer. […]
HepG2 cells were transfected with varying concentrations of pooled NRIP1 siRNA as described in Example 1, except that 24 hours post transfection 10 μM 9 cis-retinoic acid was added to the growth medium. Cells were harvested 24 hours later and apoA1 and NRIP1 mRNA levels measured as previously described. […]
HepG2 cells were transfected with four individual NRIP1 siRNA duplexes at a concentration of 100 nM or a pool of all four siRNAs at a final concentration 100 nM following the protocol previously described. […] In FIG. 6, expression levels of NRIP1 gene expression were similarly evaluated. […]

[3] = system: NRIP1 target mRNA; assay: NRIP1 mRNA by RT-qPCR in transfected HepG2 cells; assay type: cell-based, human; conditions: for NRIP1 gene expression (suppression): individual siRNA duplexes 100 nM, vs siNT and lipid controls (FIG. 6); for NRIP1 target gene expression, dose response: 4-fold dilutions from 100 nM to 1.56 nM (FIG. 7)
Method: Cultured human hepatoma cell line HepG2 cells were seeded in 6-well plates at a density of 4E5 (i.e., 4×10^5) cells/well in antibiotic free 10% FBS/MEME and cultured for 16 hours. siRNA (20 μM) was prepared by diluting to 2 μM with buffer. To that, equal amounts Opti-MEM medium was added, mixed and kept at room temperature (RT) for 5 minutes. Transfection lipid was prepared using DharmaFECT 4 transfection reagent X25 times diluted with Opti-MEM medium (4 μL/100 medium), mixed and kept at RT for 5 minutes. siRNA and transfection lipid were complexed by mixing equal volumes and incubated for 20 minutes at RT. Cultured HepG2 cells in 6-sell plates were changed into fresh antibiotic free 10% FBS/MEME (1.6 mL/well) and 400 complexed siRNA was added to each well to a final concentration of 100 nM and incubated for 48 hrs.
HepG2 cells were transfected with varying concentrations of pooled NRIP1 siRNA as described in Example 1, except that 24 hours post transfection 10 μM 9 cis-retinoic acid was added to the growth medium. Cells were harvested 24 hours later and apoA1 and NRIP1 mRNA levels measured as previously described. RT-qPCR was performed as described (Zhu et al., Analytical Biochemistry 345:102-109 (2005)) using the following NRIP1 specific primer/probes:
HepG2 cells were transfected with four individual NRIP1 siRNA duplexes at a concentration of 100 nM or a pool of all four siRNAs at a final concentration 100 nM following the protocol previously described. Following isolation of total RNA, RT-qPCR was performed for apoA1 and NRIP1 gene expression. FIG. 5 compared apoA1 mRNA gene expression for siRNA samples to the siNT and lipid controls. In FIG. 6, expression levels of NRIP1 gene expression were similarly evaluated.
The differential effectiveness of individual sequence specific RNAi molecules to inhibit gene expression is well documented (Soutschek et al., Nature 432: 173-178 (2004)). […] The NRIP1 siRNA #5 and #8 were compare using 4-fold dilutions from 100 nM to 1.56 nM.

Molecule | apoA1 mRNA levels [2] | NRIP1 gene expression (suppression) [3] | NRIP1 target gene expression, dose response [3] | also measured
CC1=C(/C=C/C(C)=C\C=C\C(C)=C\C(=O)O)C(C)(C)CCC1 [9CRA, 9-cis retinoic acid] |  |  |  | endogenous apoA1 gene expression [1]: stimulates
dsi#27-1: NRIP1 Dicer substrate RNAi duplex (IDT): sense 5′-AGACUAUACCUAAGCCAAUGAAUGG, antisense 5′-CCAUUCAUUGGCUUAGGAUAGUCUGG | elevated |  |  | 
dsi#27-2: NRIP1 Dicer substrate RNAi duplex (IDT): sense 5′-AGGAGUCACAGAAAUAAUGAAAUGG, antisense 5′-CCAUUUCAUUAUUUCUGUGACUCCUGU | elevated |  |  | 
oligo #7: NRIP1 siRNA duplex: sense GGACUGGAAUGCAGCAAAGUU (SEQ ID NO: 14), antisense 5′P-CUUUGCUGCAUUCCAGUCCUU (SEQ ID NO: 15) (5' phosphate on antisense, further chemistry not given here) |  | least effective |  | apoA1 mRNA gene expression (induction) ([2]; individual siRNA duplexes 100 nM, vs siNT and lipid controls (FIG. 5)): least effective
siRNA #5: NRIP1 siRNA duplex: sense GAAGCGUGCUAACGAUAAAUU (SEQ ID NO: 7), antisense 5′P-UUUAUCGUUAGCACGCUUCUU (SEQ ID NO: 12) (5' phosphate on antisense strand, further chemistry not given here) |  | most effective | inhibited better by siRNA #8 over siRNA #5 | 
siRNA #8: NRIP1 siRNA duplex: sense AUACGAAUCUUCCUGAUGUUU (SEQ ID NO: 9), antisense 5′P-ACAUCAGGAAGAUUCGUAUUU (SEQ ID NO: 16) (5' phosphate on antisense strand, further chemistry not given here) |  | most effective | inhibited better | 
